Assay results as given in patent publication US6444685B1, “N-(4-sulfonylaryl)Cyclylamine 2-hydroxyethylamines as beta-3 adrenergic receptor agonists” (Wyeth, priority 2000, dated 2002).

Legend:
Assay type in all cases: cell-based
[1] = target: T1, human β3 adrenergic receptor (Homo sapiens, UniProt P13945); assay: cAMP accumulation (SPA) in CHO cells transfected with human β3 adrenergic receptor; conditions: for EC50: CHO cells expressing human β3-AR, cAMP, 30 min incubation, 10^−9 M to 10^−5 M, read-out: beta-3 EC50; for beta-3 (IA) maximal response relative to isoproterenol: IA = % activity compound / % activity isoproterenol at 10^−5 M, CHO human β3 cells
T1 construct: Full length β3 AR clones (402 amino acids) containing the last 6 amino acids of hβ3— AR are prepared; expressed in transfected cells; host or cells: CHO cells
T1 sequence (P13945 whole entry): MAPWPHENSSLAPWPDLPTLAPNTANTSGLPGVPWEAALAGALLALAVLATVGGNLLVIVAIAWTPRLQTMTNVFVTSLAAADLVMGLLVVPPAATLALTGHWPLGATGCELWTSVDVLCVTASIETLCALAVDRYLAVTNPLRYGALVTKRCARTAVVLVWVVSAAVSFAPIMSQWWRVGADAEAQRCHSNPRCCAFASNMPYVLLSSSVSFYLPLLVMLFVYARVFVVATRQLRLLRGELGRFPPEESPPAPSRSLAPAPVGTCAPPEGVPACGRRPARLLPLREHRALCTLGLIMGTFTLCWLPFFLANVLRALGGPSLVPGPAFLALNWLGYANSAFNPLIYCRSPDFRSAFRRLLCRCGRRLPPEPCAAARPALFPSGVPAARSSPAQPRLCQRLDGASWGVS
Description: (§1) The ability of compounds of this invention to treat or inhibit disorders related to insulin resistance or hyperglycemia was established with representative compounds of this invention in the following standard pharmacological test procedures, which measured the binding selectivity to the β1, β2, and β3 adrenergic receptors. Binding to the receptors was measured in Chinese Hamster ovary (CHO) cells that were transfected with adrenergic receptors. The following briefly summarizes the procedures used and results obtained.
Cloning of Human β3-AR Genomic DNA: cDNA was constructed by ligating four polymerase chain reaction (PCR) products using the following primers: an ATG-Narl fragment, sense primer 5′-[…]3′ and anti-sense primer 5′[…]3′; a Narl-Accl fragment, 5′[…]3′ as sense and 5′[…]3′ as anti-sense primer; an Accli-Styl fragment, sense primer 5′[…]3′ and anti-sense primer 5′[…]3′ and a Styl-TAG fragment, with sense primer 5′[…]3′ and anti-sense primer 5′[…]3′. The corresponding primer sequences are described in Mantzoros, C. S., et.al., Diabetes 45: 909-914 (1996). The four fragments are ligated into a pUC 18 plasmid (Gibco-BRL) and sequenced. Full length β3 AR clones (402 amino acids) containing the last 6 amino acids of hβ3— AR are prepared with the β3-βARpcDNA3from ATTC.
(§2) Binding Procedure: Clones expressing receptor levels of 70 to 110 fmoles/mg protein were used in the test procedures. CHO cells were grown in 24-well tissue culture plates in Dulbecco's Modified Eagle Media with 10% fetal bovine serum, MEM non-essential amino acids, Penicillin-Streptompycin and Geneticin. On the day of test procedure, growth medium was replaced with preincubation media (Dulbecco's Modified Eagle Media and incubated for 30 minutes at 37° C. Preincubation medium was replaced with 0.2 ml treatment medium containing DMEM media containing 250 μM IBMX (isobutyl-1-methylxantine) plus 1 mM ascorbic acid with test compound dissolved in DMSO. Test compounds were tested over a concentration range of 10^−9 M to 10^−5 M for β3 cells and 10^−8 to 10^−4 M for β1 and β2 transfected cells. Isoproterenol (10^−5 M) was used as an internal standard for comparison of activity. Cells were incubated at 37° C. on a rocker for 30 min with the β3 cells and 15 min for β1 and β2 cells. Incubation was stopped with the addition of 0.2N HCl and neutralized with 2.5N NaOH. The plates, containing the cells and neutralized media, were stored at −20 degrees celsius until ready to test for cAMP using the SPA test kit (Amersham).
(§3) Data Analysis and Results: Data collected from the SPA test procedure were analyzed as per cent of the maximal isoproterenol response at 10^−5 M. Activity curves were plotted using the SAS statistical and graphics software. EC50 values were generated for each compound and the maximal response (IA) developed for each compound is compared to the maximal response of isoproternol at 10^−5 M from the following formula:
(§4) IA=% activity compound/% activity isoproterenol

[2] = target: T2, human β2-adrenergic receptor (Homo sapiens, UniProt P07550); assay: cAMP accumulation (SPA) in CHO cells transfected with human β2 adrenergic receptor; conditions: for EC50: CHO cells transfected with human β2-AR, cAMP, 15 min incubation, 10^−8 to 10^−4 M, read-out: beta-2 EC50; for beta-2 (IA) maximal response relative to isoproterenol: IA = % activity compound / % activity isoproterenol at 10^−5 M, CHO human β2 cells
T2 construct: expressed in transfected cells; host or cells: CHO cells
Description: as §1
(§5) Transfection of CHO cells with β1 and β2 adrenergic receptors: CHO cells were transfected with human β1- or β2-adrenergic receptors as described in Tate, K. M., Eur. J. Biochem., 196:357-361 (1991).
as §2, §3, §4

[3] = target: T3, human β1-adrenergic receptor (Homo sapiens, UniProt P08588); assay: cAMP accumulation (SPA) in CHO cells transfected with human β1 adrenergic receptor; conditions: for EC50: CHO cells transfected with human β1-AR, cAMP, 15 min incubation, 10^−8 to 10^−4 M, read-out: beta-1 EC50; for beta-1 (IA) maximal response relative to isoproterenol: IA = % activity compound / % activity isoproterenol at 10^−5 M, CHO human β1 cells
T3 construct: expressed in transfected cells; host or cells: CHO cells
T3 sequence (P08588 whole entry): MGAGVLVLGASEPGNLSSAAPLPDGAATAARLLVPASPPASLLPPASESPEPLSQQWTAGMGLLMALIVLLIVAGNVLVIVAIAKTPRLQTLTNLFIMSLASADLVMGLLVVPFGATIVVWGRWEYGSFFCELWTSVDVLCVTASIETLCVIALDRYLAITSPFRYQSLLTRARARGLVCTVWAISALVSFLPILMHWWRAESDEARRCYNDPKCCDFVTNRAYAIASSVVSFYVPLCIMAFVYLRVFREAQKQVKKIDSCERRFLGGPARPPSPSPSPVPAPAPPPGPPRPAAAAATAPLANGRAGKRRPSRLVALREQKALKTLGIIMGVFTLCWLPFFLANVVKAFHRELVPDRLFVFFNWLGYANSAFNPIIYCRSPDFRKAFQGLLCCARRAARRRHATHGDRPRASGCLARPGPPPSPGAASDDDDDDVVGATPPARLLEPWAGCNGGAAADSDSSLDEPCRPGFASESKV
Description: as §1, §5, §2, §3, §4

Compound | EC50 [1] [nM] | beta-3 (IA) maximal response relative to isoproterenol [1] | EC50 [2] [nM] | beta-2 (IA) maximal response relative to isoproterenol [2] | EC50 [3] [nM] | beta-1 (IA) maximal response relative to isoproterenol [3]
1-(4-{4-[2-Hydroxy-2-(4-hydroxy-3-methanesulfonylmethyl-phenyl)-ethylamino]-piperidin-1-yl}-benzenesulfonylamino)-cyclopentane Carboxylic Acid Ethyl Ester [Example 40] | 4 | (1.2) | 40 | (0.31) | 1900 | (0.45)
1-(4-{4-[2-Hydroxy-2-(4-hydroxy-3-methanesulfonylmethyl-phenyl)ethylamino]-piperidin-1-yl}-benzenesulfonylamino)cyclohexane Carboxylic Acid Ethyl Ester [Example 43] | 1 | (1) | 90 | (0.68) | 1280 | (0.58)
COc1ccc(N(Cc2ccccc2)S(=O)(=O)c2ccc(N3CCC(NCC(O)COc4cccc5[nH]c(=O)[nH]c45)CC3)cc2)cc1OC (stereo not shown) [Example 1, N-Benzyl-N-(3,4-dimethoxy-phenyl)-4-{4-[2-hydroxy-3-(2-oxo-2,3-dihydro-1H-benzoimidazol-4-yloxy)-propylamino]-piperidin-1-yl}-benzenesulfonamide] | 17 | (0.92) | – | (0) | – | (0.09)
CCCCN(Cc1ccccc1)S(=O)(=O)c1ccc(N2CCC(NC[C@H](O)COc3cccc4[nH]c(=O)[nH]c34)CC2)cc1 [Example 2, N-Benzyl-N-butyl-4-{4-[(2S)-2-hydroxy-3-(2-oxo-2,3-dihydro-1H-benzoimidazol-4-yloxy)-propylamino]-piperidin-1-yl}-benzenesulfonamide] | 94 | (1.1) | – | (0.03) | – | (0.16)
CCCCN(Cc1ccccc1)S(=O)(=O)c1ccc(N2CCC(NCC(O)c3ccc(O)c(NS(C)(=O)=O)c3)CC2)cc1 (stereo not shown) [Example 3, N-Benzyl-N-butyl-4-{4-[2-hydroxy-2-(4-hydroxy-3-methanesulfonylamino-phenyl)-ethylamino]-piperidin-1-yl}-benzenesulfonamide] | 15 | (1.1) | 310 | (0.59) | 2100 | (0.66)
O=c1[nH]c2cccc(OCC(O)CNC3CCN(c4ccc(S(=O)(=O)NCc5ccccc5)cc4)CC3)c2[nH]1 (stereo not shown) [Example 4, N-Benzyl-4-{4-[2-hydroxy-3-(2-oxo-2,3-dihydro-1H-benzoimidazol-4-yloxy)-propylamino]-piperidin-1-yl}-benzenesulfonamide] | 21 | (0.78) | – | (0) | – | (0.17)
CS(=O)(=O)Nc1cc(C(O)CNC2CCN(c3ccc(S(=O)(=O)NCc4ccccc4)cc3)CC2)ccc1O (stereo not shown) [Example 5, N-Benzyl-4-{4-[2-hydroxy-2-(4-hydroxy-3-methanesulfonylamino-phenyl)-ethylamino]-piperidin-1-yl}-benzenesulfonamide] | 16 | (0.98) | – | (0.07) | 2200 | (0.59)
O=S(=O)(NCc1ccccc1)c1ccc(N2CCC(NC[C@H](O)COc3ccc(O)cc3)CC2)cc1 [Example 6, N-Benzyl-4-{4-[(2S)-2-hydroxy-3-(4-hydroxy-phenoxy)-propylamino]-piperidin-1-yl}-benzenesulfonamide] | 200 | (0.76) | – | – | – | –
COc1ccc(NS(=O)(=O)c2ccc(N3CCC(NC[C@H](O)COc4cccc5[nH]c(=O)[nH]c45)CC3)cc2)cc1OC [Example 7, N-(3,4-Dimethoxy-phenyl)-4-{4-[(2S)-2-hydroxy-3-(2-oxo-2,3-dihydro-1H-benzoimidazol-4-yloxy)-propylamino]-piperidin-1-yl}-benzenesulfonamide] | 20 | (0.8) | – | (0.01) | 600 | (0.15)
CS(=O)(=O)Nc1cc(C(O)CNC2CCN(c3ccc(S(=O)(=O)N4CCCC4C(=O)O)cc3)CC2)ccc1O (stereo not shown) [Example 18, 1-(4-{4-[2-Hydroxy-2-(4-hydroxy-3-methanesulfonylamino-phenyl)-ethylamino]-piperidin-1-yl}-benzenesulfonyl)-pyrrolidine-2-carboxylic Acid] | 41 | (0.99) | 1000 | (0.55) | – | (0.29)
CCCCN(CC(=O)O)S(=O)(=O)c1ccc(N2CCC(NC[C@H](O)c3ccc(O)c(NS(C)(=O)=O)c3)CC2)cc1 [Example 20, [Butyl-(4-{4-[(2R)-2-hydroxy-2-(4-hydroxy-3-methanesulfonylamino-phenyl)-ethylamino]-piperidin-1-yl}-benzenesulfonyl)-amino]-acetic Acid] | 10 | (1) | 10000 | (0.3) | 10000 | (0.4)
CCOC(=O)CN(C)S(=O)(=O)c1ccc(N2CCC(NC[C@H](O)c3ccc(O)c(NS(C)(=O)=O)c3)CC2)cc1 [Example 25, [(4-{4-[(2R)-2-Hydroxy-2-(4-hydroxy-3-methanesulfonylamino-phenyl)-ethylamino]-piperidin-1-yl}-benzenesulfonyl)-methyl-amino]-acetic Acid Ethyl Ester] | 52 | (1) | 1430 | (0.37) | 1000 | (0.63)
CS(=O)(=O)Nc1cc([C@@H](O)CNC2CCN(c3ccc(S(=O)(=O)NCC4CC4)cc3)CC2)ccc1O [Example 26, N-Cyclopropylmethyl-4-{4-[(2R)-2-hydroxy-2-(4-hydroxy-3-methanesulfonylamino-phenyl)-ethylamino]-piperidin-1-yl}-benzenesulfonamide] | 23 | (0.98) | 270 | (0.29) | 240 | (0.41)
CS(=O)(=O)Nc1cc([C@@H](O)CNC2CCN(c3ccc(S(=O)(=O)N(CC(=O)O)CC(=O)O)cc3)CC2)ccc1O [Example 55, 2-((Carboxymethyl)[(4-{4-[((2R)-2-hydroxy-2-{4-hydroxy-3-[(methylsulfonyl)amino]phenyl)ethyl)amino]-1-piperidinyl}phenyl)sulfonyl]amino}acetic Acid] | 410 | (0.94) | – | – | – | –
